The results in this text go back to paper PMC3492248, “Src Kinase Regulation in Progressively Invasive Cancer” (PLoS ONE, 2012).

This series can be described thus: Stability of Src peptide substrate 1 in prostate cell lysates. It is filed as in vitro ADME, human. The settings on record: for % Remaining Parent / remaining at 1 h: M-PER lysis buffer, no ATP/Mg2+, 1 h; for remaining at 1 h: read-out: % Remaining Parent. On the procedure:
Peptides commonly suffer protease-catalyzed degradation in cells as well as in cell lysates. Consequently, prior to examining Src kinase-catalyzed phosphorylation of peptide 1 with lysates, we monitored the stability of the peptide as a function of time. Cells were lysed using Pierce’s M-PER mammalian lysis buffer and, in the absence of ATP and Mg^2+ (i.e. no observable kinase activity), the lysate was added to peptide 1. Only approximately 10% of the peptide is degraded after 1 h (Table S1). Since the phosphorylation rate is measured within 10 min of incubation (Fig. S1), the peptide is sufficiently stable for our needs.
Capillary electrophoresis was performed on a ProteomeLab PA800 system equipped with a laser-induced fluorescence (LIF) detector (Beckman Coulter). The LIF was excited using the 488 nm argon laser. A fused-silica capillary (30/20 cm total/effective length, 50/360 µm inner/outer diameter) was used for separation (Polymicro Technologies). Prior to installation, capillaries were pretreated with 0.1 M NaOH for 12 h, distilled water for 1 h, 0.1 M HCl for 6 h and water again for 12 h. The samples were hydrodynamically injected and separated at 25°C at a constant voltage of 12 kV. The running buffer was 100 mM Borate/100 mM SDS buffer at pH 7.7. Before each run, the capillary was rinsed with 0.1 M NaOH, distilled water, and then the running buffer for 2 min under 20 psi pressure. Data was collected and analyzed using 32 Karat Software (Version 8.0, Beckman Coulter).
All cell lines were acquired from ATCC and grown in a humidified incubator at 37°C with 5% CO2. PZ-HPV-7, RWPE1, WPE1-NA22, WPE1-NB14, WPE1-NB11 and WPE1-NB26 cell lines were cultured in Keratinocyte Serum Free Medium (K-SFM) supplied with 0.05 mg/mL bovine pituitary extract (BPE) and 5 ng/mL epidermal growth factor (EGF) (all provided as a kit from Invitrogen), and 1% penicillin/streptomycin (P/S; Invitrogen). CWR22Rv1 cells were cultured in RPMI-1640 medium (Invitrogen) supplemented with 10% heat-inactivated fetal bovine serum (HI-FBS, Invitrogen) and 1% P/S. DU145 cells were cultured in Eagle’s Minimum Essential Medium (EMEM, ATCC) supplemented with 10% HI-FBS and 1% P/S. PC3 cells were cultured in F-12K medium (ATCC) supplemented with 10% HI-FBS and 1% P/S. Cell lysates were prepared as follows: confluent cells were first trypsinized and collected into 15 mL tubes in the presence of FBS-containing buffer or medium and then washed (3X) with ice cold DPBS buffer. The cells were lysed using M-PER mammalian protein extraction reagent mixed with 5/100 (v/v) Halt protease and phosphatase inhibitor cocktail EDTA-free (Thermo Fisher Scientific) for 10 min at 4°C. Cell debris was removed by centrifuging samples at 14,000 x g for 10 min at 4°C. The total protein concentrations were determined using Dc Protein assay (Bio-Rad).
Cell Line % Remaining Parent

Like-named read-outs stand apart in the source and are kept apart here. Where a SMILES comes first, the peptide text is derived from it. [ ]: non-standard residue; d: D form. The star is where a group is joined. 5FAM = O=C1OC2(c3ccc(O)cc3Oc3cc(O)ccc32)c2ccc(C(=O)*)cc21; Orn = NCCC[C@H](N)C(=O)O

Turning to `CC[C@H](C)[C@H](NC(=O)[C@H](CCC(=O)O)NC(=O)[C@H](CCC(=O)O)NC(=O)[C@H](CCC(=O)O)NC(=O)[C@H](CCCNC(C)=O)NC(=O)c1ccc2c(c1)C(=O)OC21c2ccc(O)cc2Oc2cc(O)ccc21)C(=O)N[C@@H](Cc1ccc(O)cc1)C(=O)NCC(=O)N[C@@H](CCC(=O)O)C(=O)N[C@@H](Cc1ccccc1)C(=O)N[C@@H](CCCNC(C)=O)C(N)=O` [peptide 1] (5FAM-[Orn](Ac)EEEIYGEF[Orn](Ac)-NH2), the “% Remaining Parent” value came to 92.9 ± 0.5% (DU145 cell lysate); 89.2 ± 2.2% (PC3 cell lysate); 92.4 ± 0.8% (WPE1-NA22 cell lysate); 91.4 ± 1.2% (WPE1-NB14 cell lysate); 91.0 ± 1.5% (WPE1-NB26 cell lysate). In addition, the metabolised at 1 h (human, prostate cell lysates, prostate cell lysate (M-PER mammalian lysis buffer), absence of ATP and Mg2+, after 1 h, read-out: peptide degraded) was around 10%. The share remaining at 1 h is, setting by setting: (human, PZ-HPV-7 cell lysate) 92.4 ± 0.2%; (human, RWPE1 cell lysate) 91 ± 0.6%; (human, WPE1-NB11 cell lysate) 89.8 ± 1.5%.

The term amount remaining denotes what is left of the initial amount, in per cent.
